# Reference: patent publication US20250188085A1, “COMPOSITIONS AND METHODS FOR INHIBITION OF RAS” (THERAS, INC., priority 2022, published 2025)
# Like-named read-outs stand apart in the source and are kept apart here.
# Columns and labels:
# [1] = target: T1, GTP-loaded KRAS4b (amino acids 1-169) G12C/C118S protein (Homo sapiens, UniProt P01116, C118S/G12C); assay: Covalent cysteine 12 modification by MALDI-TOF MS, GTP-loaded KRAS G12C; type: binding; conditions: 15 minutes reaction time point
# T1 construct: KRAS4b (amino acids 1-169) G12C/C118S protein; made in house
# Protocol: Reaction: 1 μM of GppNHp-, GTP-, or GDP-loaded KRAS4b (amino acids 1-169) G12C/C118S protein (produced in-house by Protein Expression Laboratory, FNLCR/Leidos Biomed) in 20 mM 4-(2-hydroxyethyl)-1-piperazineethanesulfonic acid (HEPES) buffer containing 150 mM NaCl, 1 mM MgCl2, pH 7.3 was prepared freshly before assay. Ten-μL aliquots of protein were dispensed onto low volume 384-well plate, then 375 nL DMSO, and 25 nL of tested compounds from 5 mM DMSO stocks were added to appropriate wells using ECHO 555 acoustic liquid handler (Labcyte Inc.). For each reaction/assay, three blanks were prepared by mixing 10 μL of protein solution with 400 nL DMSO. The contents of the wells were carefully mixed by aspiration, and then each plate was sealed with an adhesive cover, centrifuged at 2000 g for 1 minute, and kept in the dark at room temperature until 5 min, 15 min, 30 min, or 2 h collections.
# Target pretreatment: Before each assay MALDI target (Bruker MPT 384 ground steel BC) was pre-treated by pipetting on each spot 0.75 μL of saturated sinapinic acid in acetonitrile (ACN).
# Sample preparation: At collection time point, 2 μL of reaction mixtures were pipetted out into 20 μL MALDI matrix solution (saturated solution of sinapinic acid in 1:1 ACN:water solution containing 0.75% trifluoroacetic acid (TFA)) deposited on 384 well polypropylene plate. Resulting solution was mixed by aspiration, centrifuged at 2000 g for 1 minute, then 1 μL aliquots were dispensed on pre-treated MALDI target using Beckman Coulter Biomek FXP 96/384-Span-8 Laboratory Automation Workstation. Finally, the MALDI target was dried under mild vacuum to produce spots with fine crystalline structure.
# Measurements: MALDI-TOF measurements were performed on a Bruker Daltonics rapiflex Tissuetyper TOF-TOF mass spectrometer using linear mode and mass range from 18.6 to 21.6 kDa. Detector gain was set to 3.3× (483 V), sample rate to 5 GS/s, real time smoothing to medium (175 MHz), laser smart beam pattern was set to: “MS Thin Layer M5”, and the laser frequency was 10000 Hz. Spectra were automatically collected using custom Auto Xecute method. Laser power was auto adjusted using fuzzy control. The peak selection range was set to be between 19000 and 21500 Da. Peak evaluation uses half width parameter set to be smaller than 40 Da for processed spectrograms (centroid peak detection; smoothed by SavitzkyGolay algorithm using 7 m/z width and 2 cycles; baseline was subtracted using median algorithm with flatness 1 and median level 0.01). Fuzzy control used Proteins/Oligonucleotides protocol with minimum half width 1/10 times above threshold. Up to 40000 satisfactory shots were collected in 10000 shot steps. Dynamic termination was implemented to finish data collection when peak signal/noise ratio was reaching value of 50.
# Spectra processing: Spectra were smoothed by SavitzkyGolay algorithm using 7 m/z width and three cycles. Centroid peak detection algorithm was used with signal to noise threshold set to 6, relative intensity threshold 4%, peak width 10 m/z and median baseline subtraction using flatness of 1 and median level of 0.01. Peak intensity and area under the peak were evaluated and recorded for all peaks between 19,300 Da and 21,550 Da.
# Calculation of percent modification: Percent modification was calculated as a ratio of peak height for protein modified by compound to sum of peak height of remaining protein plus peak height for protein modified by compound. If multiple modifications were observed each was calculated as a ratio of peak height for given modification versus sum of peak heights for all observed protein species. Data reported in Table 5 are from 15 minutes reaction time point.
# [2] = target: T2, GppNHp-loaded KRAS4b (amino acids 1-169) G12C/C118S protein (Homo sapiens, UniProt P01116, C118S/G12C); assay: Covalent cysteine 12 modification by MALDI-TOF MS, GppNHp-loaded KRAS G12C; type: binding; conditions: 15 minutes reaction time point
# T2 construct: KRAS4b (amino acids 1-169) G12C/C118S protein; made in house
# How it was run: (§1)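 KRAS4b 1-169 G12C/C118S loaded with GDP, GppNHp or GTP was used at 1 μM in 20 mM HEPES, 150 mM NaCl, 1 mM MgCl2, pH 7.3, and incubated with compound (5 mM DMSO stock) at room temperature in the dark. % modification at 15 min is adduct peak height over total protein peak heights by linear-mode MALDI-TOF.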
# [3] = target: T3, Avi-KRAS G12C (1-169) GppNHp/RAF1 RBD-3×FLAG (52-151) (Homo sapiens, UniProt P01116, G12C); assay: Raf1 RBD-KRAS G12C-GppNHp disruption (protein:protein interaction HTRF assay); type: biochemical
# T3 construct: Avi-KRAS G12C (1-169) GppNHp/RAF1 RBD-3×FLAG (52-151)
# How it was run: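 HTRF measuring disruption of 50 nM Avi-KRAS G12C (1-169) loaded with GppNHp binding RAF1 RBD-3×FLAG (52-151), in pH 7.5 Tris buffer with 5 mM MgCl2, 0.1% BSA, 10% DMSO. KRAS preincubated with compound 1 h, then RBD 1 h, then detection reagents 1 h, all at room temperature. Compound titration 30-0.02 μM; activity expressed as percent of DMSO control.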
# [4] = target: T4, GDP-loaded KRAS4b (amino acids 1-169) G12C/C118S protein (Homo sapiens, UniProt P01116, C118S/G12C); assay: Covalent cysteine 12 modification by MALDI-TOF MS, GDP-loaded KRAS G12C; type: binding; conditions: 15 minutes reaction time point
# T4 construct: KRAS4b (amino acids 1-169) G12C/C118S protein; made in house
# How it was run: as §1
# pERK in NCI-H358 cells = assay: Cell-based pERK HTRF assay; conditions: 30 min incubation, read-out: pERK in NCI-H358 cell inhibition IC50
# How it was run: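 Cells seeded at 4×10^4/well in RPMI with 10% FBS, then next day treated for 30 min with a 9-point, 3-fold series from 75 μM top concentration at 0.25% DMSO. Lysates were read for pERK by HTRF (d2/Eu cryptate antibodies) after 4–24 h at room temperature, emission at 615 nm.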
compound,measurement,setting,value
"C=CC(=O)N1CC[C@@H](Oc2nc(OC[C@@]34CCCN3C[C@H](F)C4)nc3c(Cl)c(-c4ccc(F)c5sc(N)c(C#N)c45)ncc23)[C@H]1C [Compound 106, 4-(4-(((2R,3R)-1-acryloyl-2-methylpyrrolidin-3-yl)oxy)-8-chloro-2-(((2R,7aS)-2-fluorotetrahydro-1H-pyrrolizin-7a (5H)-yl)methoxy)pyrido[4,3-d]pyrimidin-7-yl)-2-amino-7-fluorobenzo[b]thiophene-3-carbonitrile]",GTP-KRAS G12C percent of modification,[1],A (percent of modification ≥70%)
same,GppNHp-KRAS G12C percent of modification,[2],A (percent of modification ≥70%)
same,IC50,[3],≤ 500 nM
same,GDP-KRAS G12C percent of modification,[4],A (percent of modification ≥70%)
same,IC50,"pERK in NCI-H358 cells; Homo sapiens, NCI-H358, 0.5 h",≤ 100 nM
C=CC(=O)N1CC[C@@H](Oc2nc(OC[C@@]34CCCN3C[C@H](F)C4)nc3c(Cl)c(-c4ccc(F)c5sc(N)c(C#N)c45)ncc23)[C@@H]1C [Compound 124],GTP-KRAS G12C percent of modification,[1],D (percent of modification <10%)
same,GppNHp-KRAS G12C percent of modification,[2],D (percent of modification <10%)
same,IC50,[3],500 to 5000 nM
same,GDP-KRAS G12C percent of modification,[4],B (50≤percent of modification <70%)
same,IC50,"pERK in NCI-H358 cells; Homo sapiens, NCI-H358, 0.5 h",100 to 1000 nM
C=CC(=O)N1CCC(Oc2nc(OC[C@@]34CCCN3C[C@H](F)C4)nc3c(F)c(-c4ccc(F)c5sc(N)c(C#N)c45)c(C(F)(F)F)cc23)C1(C)C (stereo partly drawn) [Compound 61],GTP-KRAS G12C percent of modification,[1],C (10%≤modification <50%)
same,GppNHp-KRAS G12C percent of modification,[2],C (10%≤modification <50%)
same,IC50,[3],≤ 500 nM
same,GDP-KRAS G12C percent of modification,[4],C (10%≤modification <50%)
same,IC50,"pERK in NCI-H358 cells; Homo sapiens, NCI-H358, 0.5 h",≤ 100 nM
C=CC(=O)N1C[C@H](Oc2nc(OC[C@@]34CCCN3C[C@H](F)C4)nc3cc(-c4ccc(F)c5sc(N)c(C#N)c45)c(C(F)(F)F)nc23)C[C@H]1C [Compound 84],GTP-KRAS G12C percent of modification,[1],C (10%≤modification <50%)
same,GppNHp-KRAS G12C percent of modification,[2],C (10%≤modification <50%)
same,IC50,[3],≤ 500 nM
same,GDP-KRAS G12C percent of modification,[4],C (10%≤modification <50%)
same,IC50,pERK in NCI-H358 cells,≤ 100 nM
C=CC(=O)N1CC[C@@H](Oc2nc(OC[C@@]34CCCN3C[C@H](F)C4)nc3c(F)c(-c4ccc(F)c5sc(N)c(C#N)c45)ccc23)[C@@H]1CC [Compound 116],GTP-KRAS G12C percent of modification,[1],D (percent of modification <10%)
same,GppNHp-KRAS G12C percent of modification,[2],D (percent of modification <10%)
same,IC50,[3],> 20000 nM
same,GDP-KRAS G12C percent of modification,[4],C (10%≤modification <50%)
same,IC50,"pERK in NCI-H358 cells; Homo sapiens, NCI-H358, 0.5 h",> 1000 nM
C=CC(=O)N1C[C@H](Oc2nc(OC[C@@]34CCCN3C[C@H](F)C4)nc3c(F)c(-c4ccc(F)c5sc(N)nc45)c(C(F)(F)F)cc23)C[C@@H]1CO [Compound 69],GTP-KRAS G12C percent of modification,[1],C (10%≤modification <50%)
same,GppNHp-KRAS G12C percent of modification,[2],A (percent of modification ≥70%)
same,IC50,[3],≤ 500 nM
same,GDP-KRAS G12C percent of modification,[4],A (percent of modification ≥70%)
same,IC50,"pERK in NCI-H358 cells; Homo sapiens, NCI-H358, 0.5 h",≤ 100 nM
C=CC(=O)N1CC[C@@H](Oc2nc(OC[C@@]34CCCN3C[C@H](F)C4)nc3c(F)c(-c4c(F)cc(F)c5sc(N)nc45)ncc23)C1 [Compound 57],GTP-KRAS G12C percent of modification,[1],D (percent of modification <10%)
same,GppNHp-KRAS G12C percent of modification,[2],C (10%≤modification <50%)
same,IC50,[3],500 to 5000 nM
same,GDP-KRAS G12C percent of modification,[4],A (percent of modification ≥70%)
same,IC50,"pERK in NCI-H358 cells; Homo sapiens, NCI-H358, 0.5 h",100 to 1000 nM
"C=CC(=O)N1CC[C@@H](Oc2nc(OC[C@@]34CCCN3C[C@H](F)C4)nc3c(F)c(-c4ccc(F)c5sc(N)c(C#N)c45)c(C(F)(F)F)cc23)[C@H]1COC (atropisomer, axis not shown) [Compound 96]",GTP-KRAS G12C percent of modification,[1],D (percent of modification <10%)
same,GppNHp-KRAS G12C percent of modification,[2],D (percent of modification <10%)
same,IC50,[3],5000 to 20000 nM
same,GDP-KRAS G12C percent of modification,[4],D (percent of modification <10%)
same,IC50,pERK in NCI-H358 cells,100 to 1000 nM
C=CC(=O)N1CCC(Oc2nc(N3CC(N4CC5(CC5)C4)C3)nc3c(F)c(-c4ccc(F)c5sc(N)c(C#N)c45)c(C(F)(F)F)cc23)C1 (stereo not drawn) [Compound 78],GTP-KRAS G12C percent of modification,[1],D (percent of modification <10%)
same,GppNHp-KRAS G12C percent of modification,[2],C (10%≤modification <50%)
same,IC50,[3],≤ 500 nM
same,GDP-KRAS G12C percent of modification,[4],C (10%≤modification <50%)
same,IC50,"pERK in NCI-H358 cells; Homo sapiens, NCI-H358, 0.5 h",≤ 100 nM
C=CC(=O)N1CC[C@@H](Oc2nc(OCC34CCCN3CCC4)nc3c(F)c(-c4ccc(F)c5sc(N)c(C#N)c45)c(C(F)(F)F)cc23)[C@H]1C [Compound 100],GTP-KRAS G12C percent of modification,[1],C (10%≤modification <50%)
same,GppNHp-KRAS G12C percent of modification,[2],C (10%≤modification <50%)
same,IC50,[3],≤ 500 nM
same,GDP-KRAS G12C percent of modification,[4],B (50≤percent of modification <70%)
same,IC50,"pERK in NCI-H358 cells; Homo sapiens, NCI-H358, 0.5 h",100 to 1000 nM
C=CC(=O)N1CC[C@@H](Oc2nc(OC[C@@]34CCCN3C[C@H](F)C4)nc3cc(-c4ccc(F)c5sc(N)c(C#N)c45)c(C(F)(F)F)cc23)[C@H]1C [Compound 98],GTP-KRAS G12C percent of modification,[1],C (10%≤modification <50%)
same,GppNHp-KRAS G12C percent of modification,[2],B (50≤percent of modification <70%)
same,IC50,[3],≤ 500 nM
same,GDP-KRAS G12C percent of modification,[4],B (50≤percent of modification <70%)
same,IC50,"pERK in NCI-H358 cells; Homo sapiens, NCI-H358, 0.5 h",100 to 1000 nM
C=CC(=O)N1C[C@@H](F)[C@@H](Oc2nc(OC[C@@]34CCCN3C[C@H](F)C4)nc3c(F)c(-c4ccc(F)c5sc(N)c(C#N)c45)ccc23)C1 [Compound 80],GTP-KRAS G12C percent of modification,[1],A (percent of modification ≥70%)
same,GppNHp-KRAS G12C percent of modification,[2],A (percent of modification ≥70%)
same,IC50,[3],≤ 500 nM
same,GDP-KRAS G12C percent of modification,[4],A (percent of modification ≥70%)
same,IC50,"pERK in NCI-H358 cells; Homo sapiens, NCI-H358, 0.5 h",≤ 100 nM
